Source: ChEMBL document CHEMBL3045043, “Synthesis, chemical characterization of novel 1,3-dimethyl acridones as cytotoxic agents, and their DNA-binding studies” (Med Chem Res, 2010)

Columns and labels:
DNA = test: Binding affinity to Bos taurus (calf) thymus DNA assessed as hypochromicity at 15 uM by spectrophotmetry analysis; format: nucleic-acid assay
HL-60 = test: Cytotoxicity against Homo sapiens (human) HL60 cells after 48 hr by trypan blue assay; format: functional, cell-based; details: HL-60, 48 h
MCF7 = test: Cytotoxicity against Homo sapiens (human) MCF7 cells after 48 hr by trypan blue assay; format: functional, cell-based; details: MCF7, 48 h

Structure (SMILES) | Activity (DNA) [%] | IC50 (HL-60) [µM] | IC50 (MCF7) [µM]
CCN(CC)CCCCn1c2ccccc2c(=O)c2c(C)cc(C)cc21 | 52 | 0.45 | 7.98
Cc1cc(C)c2c(=O)c3ccccc3n(CCCCl)c2c1 | – | 16.4 | 54.4
Cc1cc(C)c2c(=O)c3ccccc3[nH]c2c1 | – | 20 | 78.9
Cc1cc(C)c2c(=O)c3ccccc3n(CCCN3CCCCC3)c2c1 | – | 14.1 | 34.6
CCN(CC)CCCn1c2ccccc2c(=O)c2c(C)cc(C)cc21 | 40 | 1.65 | 11.2
Cc1cc(C)c2c(=O)c3ccccc3n(CCCCN3CCCCC3)c2c1 | 50 | 1.41 | 6.67
Cc1cc(C)c2c(=O)c3ccccc3n(CCCCN3CCN(CCO)CC3)c2c1 | 53 | 11 | 4
Cc1cc(C)c2c(=O)c3ccccc3n(CCCCN3CCOCC3)c2c1 | 35 | 0.51 | 8.45
Cc1cc(C)c2c(=O)c3ccccc3n(CCCN3CCCC3)c2c1 | – | 14.6 | 19.7
Cc1cc(C)c2c(=O)c3ccccc3n(CCCCN3CCCC3)c2c1 | 29 | 14.1 | 4.56
Cc1cc(C)c2c(=O)c3ccccc3n(CCCN3CCN(CCO)CC3)c2c1 | 52 | 10.9 | 7.87
Cc1cc(C)c2c(=O)c3ccccc3n(CCCCCl)c2c1 | – | 14.2 | 34.4
Cc1cc(C)c2c(=O)c3ccccc3n(CCCN3CCOCC3)c2c1 | 13 | 13.7 | 43.9
Cc1cc(C)c2c(=O)c3ccccc3n(CCCN3CCN(C)CC3)c2c1 | 48 | 15.4 | 28.5
O=P1(N(CCCl)CCCl)NCCCO1 (stereo unspecified) [CYCLOPHOSPHAMIDE ANHYDROUS] | – | – | 0.16
Cc1cc(C)c2c(=O)c3ccccc3n(CCCCN3CCN(C)CC3)c2c1 | 51 | 1.74 | 8.96
